Measured values reported in PubChem BioAssay (NCI).
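Exposure lasted 48 hours, with cells grown in 96-well plates and compounds tested at five concentrations. Definition used: TGI = concentration required for complete inhibition of growth.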

Tests used:
Assay in all cases: NCI anticancer screen, dose series, 48 h
[1] = test system: OVCAR-5 ovarian
[2] = test system: LOX IMVI melanoma
[3] = test system: NCI-H226 lung
[4] = test system: M14 melanoma
[5] = test system: SK-MEL-5 melanoma
[6] = test system: NCI-H23 lung
[7] = test system: CCRF-CEM leukemia
[8] = test system: NCI-H460 lung
[9] = test system: 786-0 renal
[10] = test system: UACC-62 melanoma
[11] = test system: RPMI-8226 leukemia
[12] = test system: NCI/ADR-RES ovarian
[13] = test system: BT-549 breast
[14] = test system: NCI-H522 lung
[15] = test system: SNB-75 CNS
[16] = test system: ACHN renal
[17] = test system: A498 renal
[18] = test system: UACC-257 melanoma
[19] = test system: HOP-92 NSCLC
[20] = test system: SK-OV-3 ovarian
[21] = test system: MCF7 breast
[22] = test system: RXF 393 renal
[23] = test system: MDA-N
[24] = test system: HCC-2998 colon
[25] = test system: SK-MEL-2 melanoma
[26] = test system: HCT-116 colon
[27] = test system: OVCAR-8 ovarian
[28] = test system: MDA-MB-435
[29] = test system: SNB-19 CNS
[30] = test system: MDA-MB-231 breast
[31] = test system: SW-620 colon
[32] = test system: COLO 205 colon
[33] = test system: OVCAR-3 ovarian
[34] = test system: HCT-15 colon
[35] = test system: HS 578T breast
[36] = test system: UO-31 renal
[37] = test system: SK-MEL-28 melanoma
[38] = test system: TK-10 renal
[39] = test system: DU-145 prostate
[40] = test system: MOLT-4 leukemia
[41] = test system: MALME-3M melanoma
[42] = test system: HL-60(TB) leukemia
[43] = test system: OVCAR-4 ovarian
[44] = test system: KM12 colon
[45] = test system: SF-295 CNS
[46] = test system: SF-539 CNS
[47] = test system: A549 NSCLC
[48] = test system: K-562 leukemia
[49] = test system: IGROV1 ovarian
[50] = test system: CAKI-1 renal
[51] = test system: PC-3 prostate
[52] = test system: U251 CNS
[53] = test system: T-47D breast
[54] = test system: SN12C renal
[55] = test system: EKVX NSCLC
[56] = test system: HOP-62 NSCLC
[57] = test system: SF-268 CNS
[58] = test system: HT29 colon
[59] = test system: SR leukemia

How did the TGI [1] turn out when `CC(=O)OC1CC(OC2C(O)CC(OC3C(O)CC(OC4CCC5(C)C(CCC6C5CCC5(C)C(C7=CC(=O)OC7)CCC65O)C4)OC3C)OC2C)OC(C)C1OC1OC(CO)C(O)C(O)C1O` (stereo not given) was run?
The TGI was 116 nM.

And the TGI [2]?
The TGI was 68.5 nM.

What about the TGI [3] of the same compound?
The TGI was 241 nM.

And the TGI [4]?
Its TGI is 188 nM.

What about the TGI [5] of the same compound?
The TGI was 107 nM.

And the TGI [6]?
The TGI was 23.3 nM.

And the TGI [7]?
The TGI was > 100000 nM.

And the TGI [8]?
The TGI was 24.5 nM.

What about the TGI [9] of the same compound?
The TGI was 59.8 nM.

What about the TGI [10] of the same compound?
The TGI was 334 nM.

And the TGI [11]?
Its TGI is 7430 nM.

What about the TGI [12] of the same compound?
The TGI was 58.1 nM.

And the TGI [13]?
Its TGI is 98.4 nM.

What about the TGI [14] of the same compound?
Its TGI is 29.1 nM.

And the TGI [15]?
The TGI was 249 nM.

And the TGI [16]?
The TGI was 94.2 nM.

What about the TGI [17] of the same compound?
Its TGI is 131 nM.

What about the TGI [18] of the same compound?
The TGI was 422 nM.

And the TGI [19]?
Its TGI is 234 nM.

What about the TGI [20] of the same compound?
The TGI was 186 nM.

What about the TGI [21] of the same compound?
Its TGI is 536 nM.

And the TGI [22]?
Its TGI is 101 nM.

What about the TGI [23] of the same compound?
Its TGI is 152 nM.

And the TGI [24]?
Its TGI is 290 nM.

And the TGI [25]?
Its TGI is 245 nM.

And the TGI [26]?
Its TGI is 47.2 nM.

And the TGI [27]?
Its TGI is 139 nM.

What about the TGI [28] of the same compound?
Its TGI is 172 nM.

And the TGI [29]?
Its TGI is 348 nM.

And the TGI [30]?
Its TGI is 2980 nM.

And the TGI [31]?
The TGI was 148 nM.

What about the TGI [32] of the same compound?
Its TGI is 168 nM.

What about the TGI [33] of the same compound?
The TGI was 88.3 nM.

What about the TGI [34] of the same compound?
Its TGI is 67.9 nM.

What about the TGI [35] of the same compound?
The TGI was 92.6 nM.

What about the TGI [36] of the same compound?
Its TGI is 130 nM.

What about the TGI [37] of the same compound?
Its TGI is 592 nM.

What about the TGI [38] of the same compound?
Its TGI is 149 nM.

And the TGI [39]?
The TGI was 48.9 nM.

And the TGI [40]?
The TGI was > 100000 nM.

What about the TGI [41] of the same compound?
The TGI was 112 nM.

What about the TGI [42] of the same compound?
The TGI was 82.7 nM.

What about the TGI [43] of the same compound?
Its TGI is 162 nM.

And the TGI [44]?
The TGI was 310 nM.

What about the TGI [45] of the same compound?
Its TGI is 142 nM.

And the TGI [46]?
Its TGI is 35.2 nM.

What about the TGI [47] of the same compound?
The TGI was 22.1 nM.

What about the TGI [48] of the same compound?
Its TGI is > 100000 nM.

What about the TGI [49] of the same compound?
Its TGI is 289 nM.

What about the TGI [50] of the same compound?
The TGI was < 32.1 nM.

And the TGI [51]?
Its TGI is 159 nM.

What about the TGI [52] of the same compound?
Its TGI is 137 nM.

And the TGI [53]?
Its TGI is 344 nM.

And the TGI [54]?
Its TGI is 286 nM.

And the TGI [55]?
Its TGI is 53.6 nM.

And the TGI [56]?
The TGI was < 15.6 nM.

What about the TGI [57] of the same compound?
The TGI was 129 nM.

What about the TGI [58] of the same compound?
Its TGI is 171 nM.

With `Cc1cc(S(=O)(=O)NC2=NCCCN2)c(S)cc1Cl` as the compound, how does the TGI [1] read?
Its TGI is > 100000 nM.

And the TGI [2]?
Its TGI is 42600 nM.

And the TGI [3]?
The TGI was 88200 nM.

And the TGI [4]?
The TGI was 86100 nM.

What about the TGI [5] of the same compound?
Its TGI is 32400 nM.

And the TGI [8]?
The TGI was > 100000 nM.

What about the TGI [9] of the same compound?
Its TGI is 56400 nM.

What about the TGI [10] of the same compound?
Its TGI is 90300 nM.

And the TGI [12]?
Its TGI is > 100000 nM.

What about the TGI [13] of the same compound?
The TGI was 36400 nM.

And the TGI [14]?
The TGI was 62800 nM.

And the TGI [15]?
The TGI was > 100000 nM.

And the TGI [16]?
Its TGI is > 100000 nM.

And the TGI [17]?
Its TGI is > 100000 nM.

And the TGI [18]?
The TGI was > 100000 nM.

And the TGI [20]?
The TGI was > 100000 nM.

And the TGI [59]?
Its TGI is 56100 nM.

What about the TGI [22] of the same compound?
Its TGI is > 100000 nM.

And the TGI [23]?
The TGI was > 100000 nM.

And the TGI [24]?
Its TGI is > 100000 nM.

And the TGI [25]?
Its TGI is 77700 nM.

What about the TGI [26] of the same compound?
Its TGI is 94100 nM.

What about the TGI [27] of the same compound?
The TGI was 67600 nM.

What about the TGI [28] of the same compound?
The TGI was 54700 nM.

What about the TGI [29] of the same compound?
The TGI was > 100000 nM.

What about the TGI [30] of the same compound?
Its TGI is > 100000 nM.

What about the TGI [31] of the same compound?
Its TGI is 37800 nM.

And the TGI [32]?
Its TGI is > 100000 nM.

What about the TGI [33] of the same compound?
The TGI was > 100000 nM.

What about the TGI [34] of the same compound?
The TGI was > 100000 nM.

And the TGI [35]?
Its TGI is 86700 nM.

What about the TGI [36] of the same compound?
The TGI was > 100000 nM.

And the TGI [37]?
The TGI was > 100000 nM.

What about the TGI [38] of the same compound?
The TGI was 74700 nM.

What about the TGI [39] of the same compound?
The TGI was > 100000 nM.

And the TGI [41]?
Its TGI is 72400 nM.

And the TGI [42]?
Its TGI is 45900 nM.

And the TGI [43]?
The TGI was > 100000 nM.

And the TGI [44]?
The TGI was > 100000 nM.

What about the TGI [46] of the same compound?
The TGI was > 100000 nM.

And the TGI [47]?
Its TGI is 53900 nM.

What about the TGI [48] of the same compound?
The TGI was 75900 nM.

What about the TGI [49] of the same compound?
The TGI was > 100000 nM.

And the TGI [50]?
The TGI was > 100000 nM.

And the TGI [51]?
Its TGI is > 100000 nM.

What about the TGI [52] of the same compound?
The TGI was > 100000 nM.

What about the TGI [53] of the same compound?
The TGI was > 100000 nM.

And the TGI [54]?
Its TGI is > 100000 nM.

What about the TGI [55] of the same compound?
Its TGI is > 100000 nM.

What about the TGI [56] of the same compound?
Its TGI is > 100000 nM.

And the TGI [57]?
The TGI was > 100000 nM.

What about the TGI [58] of the same compound?
Its TGI is 49600 nM.
